Experimental data reported in PubChem BioAssay (NCI).
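Cultured in 96-well plates, cells were exposed to test compound for 48 hours across five concentrations. TGI: total growth inhibition.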

How the values were obtained:
Experiment in all cases: NCI tumour cell line growth inhibition, 48 h
[1] = test system: OVCAR-4 ovarian
[2] = test system: TK-10 renal
[3] = test system: COLO 205 colon
[4] = test system: ACHN renal
[5] = test system: 786-0 renal
[6] = test system: HCC-2998 colon
[7] = test system: HT29 colon
[8] = test system: CAKI-1 renal
[9] = test system: LXFL 529 NSCLC
[10] = test system: SF-539 CNS
[11] = test system: OVCAR-3 ovarian
[12] = test system: MOLT-4 leukemia
[13] = test system: HCT-15 colon
[14] = test system: UO-31 renal
[15] = test system: M19-MEL melanoma
[16] = test system: EKVX NSCLC
[17] = test system: HOP-62 NSCLC
[18] = test system: NCI-H226 lung
[19] = test system: A498 renal
[20] = test system: CCRF-CEM leukemia
[21] = test system: SK-OV-3 ovarian
[22] = test system: MALME-3M melanoma
[23] = test system: SK-MEL-28 melanoma
[24] = test system: U251 CNS
[25] = test system: DMS 114 small cell lung
[26] = test system: M14 melanoma
[27] = test system: KM12 colon
[28] = test system: SNB-19 CNS
[29] = test system: DLD-1 colon
[30] = test system: SF-295 CNS
[31] = test system: SNB-78 CNS
[32] = test system: NCI-H460 lung
[33] = test system: NCI-H23 lung
[34] = test system: UACC-62 melanoma
[35] = test system: SN12C renal
[36] = test system: SW-620 colon
[37] = test system: SR leukemia
[38] = test system: SK-MEL-5 melanoma
[39] = test system: LOX IMVI melanoma
[40] = test system: A549 NSCLC
[41] = test system: KM20L2 colon
[42] = test system: HCT-116 colon
[43] = test system: SNB-75 CNS
[44] = test system: DMS 273 small cell lung
[45] = test system: HOP-18 NSCLC
[46] = test system: UACC-257 melanoma
[47] = test system: RXF 393 renal
[48] = test system: HOP-92 NSCLC
[49] = test system: OVCAR-8 ovarian
[50] = test system: RPMI-8226 leukemia
[51] = test system: K-562 leukemia
[52] = test system: IGROV1 ovarian
[53] = test system: OVCAR-5 ovarian
[54] = test system: SF-268 CNS
[55] = test system: NCI-H522 lung
[56] = test system: HL-60(TB) leukemia
[57] = test system: SK-MEL-2 melanoma
[58] = test system: XF 498 CNS

## COC(=O)C1=C(c2cc(OC)c(OC)c(OC)c2)OC(c2ccc3c(c2)OCO3)C1 (stereo not given)
[1]
  TGI: > 100 µM
[2]
  TGI: > 100 µM
[3]
  TGI: 26.8 µM
[4]
  TGI: > 100 µM
[5]
  TGI: > 100 µM
[6]
  TGI: > 100 µM
[7]
  TGI: 97.5 µM
[8]
  TGI: > 100 µM
[9]
  TGI: 90 µM
[10]
  TGI: > 100 µM
[11]
  TGI: 81.7 µM
[12]
  TGI: > 100 µM
[13]
  TGI: > 100 µM
[14]
  TGI: > 100 µM
[15]
  TGI: > 100 µM
[16]
  TGI: 99.2 µM
[17]
  TGI: > 100 µM
[18]
  TGI: > 100 µM
[19]
  TGI: 52.2 µM
[20]
  TGI: > 100 µM
[21]
  TGI: > 100 µM
[22]
  TGI: > 100 µM
[23]
  TGI: > 100 µM
[24]
  TGI: > 100 µM
[25]
  TGI: 45.7 µM
[26]
  TGI: > 100 µM
[27]
  TGI: > 100 µM
[28]
  TGI: > 100 µM
[29]
  TGI: > 100 µM
[30]
  TGI: > 100 µM
[31]
  TGI: > 100 µM
[32]
  TGI: > 100 µM
[33]
  TGI: 98.9 µM
[34]
  TGI: 35.5 µM
[35]
  TGI: > 100 µM
[36]
  TGI: 67.3 µM
[37]
  TGI: 62.8 µM
[38]
  TGI: > 100 µM
[39]
  TGI: > 100 µM
[40]
  TGI: > 100 µM
[41]
  TGI: 58.2 µM
[42]
  TGI: > 100 µM
[43]
  TGI: > 100 µM
[44]
  TGI: > 100 µM
[45]
  TGI: > 100 µM
[46]
  TGI: > 100 µM
[47]
  TGI: > 100 µM
[48]
  TGI: > 100 µM
[49]
  TGI: > 100 µM
[50]
  TGI: > 100 µM
[51]
  TGI: > 100 µM
[52]
  TGI: 29.5 µM
[53]
  TGI: > 100 µM
[54]
  TGI: > 100 µM

## C=CCOC(C)n1c(C)c(Br)c(=O)[nH]c1=O (stereo not given)
[2]
  TGI: > 100 µM
[3]
  TGI: > 100 µM
[4]
  TGI: > 100 µM
[55]
  TGI: > 100 µM
[5]
  TGI: > 100 µM
[56]
  TGI: > 100 µM
[6]
  TGI: > 100 µM
[7]
  TGI: > 100 µM
[8]
  TGI: > 100 µM
[9]
  TGI: > 100 µM
[10]
  TGI: > 100 µM
[11]
  TGI: > 100 µM
[12]
  TGI: > 100 µM
[13]
  TGI: > 100 µM
[14]
  TGI: > 100 µM
[15]
  TGI: > 100 µM
[16]
  TGI: > 100 µM
[57]
  TGI: > 100 µM
[18]
  TGI: > 100 µM
[19]
  TGI: > 100 µM
[20]
  TGI: > 100 µM
[21]
  TGI: > 100 µM
[22]
  TGI: > 100 µM
[23]
  TGI: > 100 µM
[24]
  TGI: > 100 µM
[25]
  TGI: > 100 µM
[27]
  TGI: > 100 µM
[28]
  TGI: > 100 µM
[29]
  TGI: > 100 µM
[30]
  TGI: > 100 µM
[32]
  TGI: > 100 µM
[33]
  TGI: > 100 µM
[34]
  TGI: > 100 µM
[35]
  TGI: > 100 µM
[58]
  TGI: > 100 µM
[36]
  TGI: > 100 µM
[37]
  TGI: > 100 µM
[38]
  TGI: > 100 µM
[39]
  TGI: > 100 µM
[40]
  TGI: > 100 µM
[41]
  TGI: > 100 µM
[42]
  TGI: > 100 µM
[43]
  TGI: > 100 µM
[44]
  TGI: > 100 µM
[46]
  TGI: > 100 µM
[47]
  TGI: > 100 µM
[48]
  TGI: > 100 µM
[49]
  TGI: > 100 µM
[52]
  TGI: > 100 µM
[53]
  TGI: > 100 µM
[54]
  TGI: > 100 µM
